Data set [1] deals with 5FU resistant (5FUR) colon cancer cell lines. Description: Cell viability of 5FU resistant colon cancer cell lines. Format: cell-based. To be noted: combination of 5FU.
Data set [2] concerns C57BL/6 mice. Description: DSS-induced chronic colitis. The data set is classed as in vivo, mouse. To be noted: 4 cycles of 2% DSS; for colon weight/length ratio / expression of Cldn4 in colons / inflammation (serum IL-6, IL-10, TNF-α, colonic tissue MPO levels) / shortening of colons: 20 mg/kg/day; for DSS-induced chronic colitis: 20 mg/kg/day on 4th and 6th day of each cycle.

Data set [3] relates to HT29 cells. Description: AhR/Cyp1A1 siRNA knockdown and Cyp1A1 CRISPR/Cas9 deletion. Format: cell-based, human. To be noted: 24 h; for Cldn4 or NQO1 in Cyp1A1 deleted cells: CRISPR/Cas9, 50 μM; for Cldn4 induction in AhR or Cyp1A1 knockdown cells: siRNA, 50 μM. The procedure: Small interfering RNA (siRNA) mediated knockdown experiment: The AhR siRNA (SR300136) and Cyp1A1 siRNA (SR301093) was purchased from Origene. For knockdown experiments, HT29 cells (0.5×10^6 cells/well) were plated in 6 well plate and grown for 24 hr. The AhR, Cyp1A1 and control-siRNA was transfected into HT29 cells using Lipofectamine® RNAiMAX reagent (ThermoFisher Scientific) as per instruction given. After 24 hr of transfections, cell were induced with vehicle (0.01% DMSO), UroA (50 μM) and UAS03 (50 μM) for 24 hr. After treatment with inducers, cells were lysed using RIPA buffer and total protein was used to analyse the expression of AhR, Cyp1A1 and cldn4 by western blot.
Cyp1A1 deletion by CRISPR/Cas9 method: HT29 cells (1.5×10^5) were plated in 6-well in antibiotic free standard growth medium 24 h prior to transfection. At 60% confluency cells, cell were co-transfected with 2 μg each of CRISPR/Cas9 KO Plasmid (sc-400511-KO-2; Santa cruz) and HDR Plasmid (sc-400511-HDR-2; Santa cruz) using UltraCruz® Transfection Reagent (sc-395739; Santa Cruz). Medium was replaced with selective medium (containing 4 μg/mL puromycin) 96 hr post transfection. Transfection was confirmed with fluorescence microscopy and western blot (CYP1A1). The double positive cells for GFP and RFP were sorted using MoFlo XDP sorting instrument (Beckman Coulter). The deletion of Cyp1A1 in these sorted was confirmed by Western blots. These cells were then plated in 6-well plate for in standard medium for evaluating the effect of UroA/UAS03 on Cldn4 expression. After 24 hr of UroA/UAS03 treatment cells were harvested for protein and Cldn4 expression was investigated along with normal HT29 cells.

Data set [4] concerns Caco2 cells. The data set is described as follows: LPS depletion of Ocln in colon epithelial cells. Format: cell-based, human. The conditions noted are these: 10, 25, 50 μM, 24 h. How it is done:
FIG. 12: UroA/UAS03 protect from LPS or alcohol induced depletion of Ocln and protected permeability. (A) Caco 2 cells were treated with LPS for 24 h at indicated doses and Western blots performed to determine expression of Ocln. (B) Caco2 cells were treated with LPS in combination with UroA or UAS03 (10, 25, 50 μM) for 24 h and determined Ocln expression.
UroA/UAS03 upregulate TJ proteins and protect against LPS induced damage: TJ proteins such as Cldn4, ZO-1, Ocln play a role in maintaining the gut epithelial integrity and protect the gut from external insults such as LPS. We investigated UroA/UAS03 effects on TJ protein regulation in colon epithelial cells, HT-29 and Caco2 cells. […] ALD is associated with disrupted TJs, increased permeability, inflammation and endotoxemia. Ocln is a tight junction protein expressed in intestinal epithelium and plays a role in maintenance of gut barrier function. We examined whether UroA/UAS03 can protect LPS (endotoxin) depletion of Ocln in colon epithelial cells. […] For this purpose, we have utilized Caco-2 monolayer cells on transwell membranes and performed transepithelial electrical resistance (TEER) and FITC-dextran permeability assays.

Each structure is given as a SMILES string.

On to `Oc1ccc2c(c1)COc1cc(O)ccc1-2` [UAS03, 6H-benzo[c]chromene-3,8-diol], for which the “cell viability of 5FUR colon cancer cell lines, combination with 5FU” value in data set [1] is “reduced cell viability”. In data set [2], the colon weight/length ratio result is listed as “increased colon weight/length ratio”; the “expression of Cldn4 in colons” value is “enhanced the expression of Cldn4”; the “inflammation (serum IL-6, IL-10, TNF-α, colonic tissue MPO levels)” value is given as “reduced inflammation”; the shortening of colons entry is recorded as “reduced shortening of colons”. The DSS-induced chronic colitis result in data set [2] is “protected from DSS-induced colitis”. For the same compound, in data set [3], the “Cldn4 or NQO1 in Cyp1A1 deleted cells” value is listed as “did not appear to upregulate” and the “Cldn4 induction in AhR or Cyp1A1 knockdown cells” value is on record as “does not appear to induce Cldn4”. For the same compound, the “LPS depletion of Ocln” value in data set [4] was “protected from depletion of Ocln”.

With `O=c1oc2cc(O)ccc2c2ccc(O)cc12` [UroA, 3,8-dihydroxy-6H-dibenzo[b,d]pyran-6-one], the “cell viability of 5FUR colon cancer cell lines, combination with 5FU” value in data set [1] is given as “reduced cell viability”. Also, in data set [2], the colon weight/length ratio result was “increased colon weight/length ratio”; the “expression of Cldn4 in colons” value is on record as “enhanced the expression of Cldn4”; the “inflammation (serum IL-6, IL-10, TNF-α, colonic tissue MPO levels)” value is recorded as “reduced inflammation”; the shortening of colons result is “reduced shortening of colons”. The DSS-induced chronic colitis result in data set [2] is on record as “protected from DSS-induced colitis”. For the same compound, in data set [3], the “Cldn4 or NQO1 in Cyp1A1 deleted cells” value is “did not appear to upregulate” and the “Cldn4 induction in AhR or Cyp1A1 knockdown cells” value is reported as “does not appear to induce Cldn4”. In addition, in data set [4], the “LPS depletion of Ocln” value is recorded as “protected from depletion of Ocln”.

Source of the values: US12377069B2, “Compounds, compositions, methods of using, and methods for preparing compounds” (UNIVERSITY OF LOUISVILLE RESEARCH FOUNDATION, INC., priority 2018, dated 2025).
